In US20260265238A1, “COMPOUNDS AND PHARMACEUTICAL COMPOSITIONS THAT DEGRADE SWI/SNF-RELATED MATRIX-ASSOCIATED ACTIN-DEPENDENT REGULATOR OF CHROMATIN SUBFAMILY A” (Plexium, Inc., priority 2023, published 2026):

Columns and labels:
[1] = target: T1, SMARCA2-HiBiT HeLa cells (protein which is expressed from the SMARCA2 gene) (Homo sapiens, UniProt P51531); test: SMARCA2 degradation assay (HiBiT-fusion HeLa cell line, 24 h, luminescence); type: cell-based
T1 construct: protein which is expressed from the SMARCA2 and SMARCA4 genes; host or cells: HeLa (SMARCA2-HiBiT engineered line)
T1 sequence (P51531 whole entry, the tested form may be a part): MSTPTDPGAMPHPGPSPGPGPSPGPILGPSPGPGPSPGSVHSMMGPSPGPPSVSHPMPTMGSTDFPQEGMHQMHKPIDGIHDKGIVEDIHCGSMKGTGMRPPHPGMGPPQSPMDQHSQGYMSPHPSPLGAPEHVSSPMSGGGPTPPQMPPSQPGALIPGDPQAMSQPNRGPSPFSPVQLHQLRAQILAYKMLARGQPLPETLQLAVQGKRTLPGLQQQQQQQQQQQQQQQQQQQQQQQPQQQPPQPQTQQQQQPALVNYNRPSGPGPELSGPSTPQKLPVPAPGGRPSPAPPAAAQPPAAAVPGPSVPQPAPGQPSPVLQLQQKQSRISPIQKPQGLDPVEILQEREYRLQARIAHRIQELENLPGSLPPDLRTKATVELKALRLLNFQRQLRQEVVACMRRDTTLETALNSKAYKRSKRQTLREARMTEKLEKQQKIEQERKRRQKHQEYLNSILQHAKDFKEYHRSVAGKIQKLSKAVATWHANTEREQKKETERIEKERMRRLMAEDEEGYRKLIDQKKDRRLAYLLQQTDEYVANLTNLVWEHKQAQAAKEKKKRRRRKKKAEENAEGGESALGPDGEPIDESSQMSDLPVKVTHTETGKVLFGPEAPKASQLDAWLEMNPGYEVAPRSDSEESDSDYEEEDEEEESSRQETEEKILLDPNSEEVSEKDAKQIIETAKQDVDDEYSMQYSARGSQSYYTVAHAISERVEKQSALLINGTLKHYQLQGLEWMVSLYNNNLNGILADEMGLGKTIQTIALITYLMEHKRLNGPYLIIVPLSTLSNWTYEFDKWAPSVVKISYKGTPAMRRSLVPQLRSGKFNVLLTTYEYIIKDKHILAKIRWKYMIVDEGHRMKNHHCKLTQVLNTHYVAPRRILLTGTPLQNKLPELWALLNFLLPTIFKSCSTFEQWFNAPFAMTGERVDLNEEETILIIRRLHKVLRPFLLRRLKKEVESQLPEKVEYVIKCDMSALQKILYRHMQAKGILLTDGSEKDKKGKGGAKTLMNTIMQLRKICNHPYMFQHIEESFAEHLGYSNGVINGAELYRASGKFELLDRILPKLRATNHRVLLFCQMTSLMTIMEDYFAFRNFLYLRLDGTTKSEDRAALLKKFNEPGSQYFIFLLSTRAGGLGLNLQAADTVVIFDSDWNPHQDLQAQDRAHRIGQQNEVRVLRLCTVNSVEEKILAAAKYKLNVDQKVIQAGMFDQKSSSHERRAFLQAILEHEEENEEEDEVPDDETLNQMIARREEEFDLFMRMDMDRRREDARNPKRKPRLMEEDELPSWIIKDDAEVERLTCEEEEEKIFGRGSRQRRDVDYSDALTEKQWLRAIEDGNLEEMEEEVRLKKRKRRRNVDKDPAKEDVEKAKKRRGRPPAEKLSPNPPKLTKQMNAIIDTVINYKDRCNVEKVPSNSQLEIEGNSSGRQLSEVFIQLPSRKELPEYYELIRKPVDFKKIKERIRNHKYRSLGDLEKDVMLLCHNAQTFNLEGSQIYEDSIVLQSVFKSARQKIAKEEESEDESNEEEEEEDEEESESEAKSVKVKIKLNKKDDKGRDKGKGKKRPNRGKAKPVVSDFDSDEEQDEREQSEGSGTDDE
In short: (§1)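 HiBiT-fusion HeLa lines, 8,000 cells/well, overnight attachment; cpd 10-pt series (typically 10 μM–300 pM), 24 h, 37° C. Lysis with LgBiT + HiBiT substrate, 10 min shaking at RT, luminescence read. DC50 from dose-response fit; % degradation also scored at 1 μM.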

[2] = target: T2, SMARCA4-HiBiT HeLa cells (protein which is expressed from the SMARCA4 gene) (Homo sapiens, UniProt P51532); test: SMARCA4 degradation assay (HiBiT-fusion HeLa cell line, 24 h, luminescence); type: cell-based
T2 construct: protein which is expressed from the SMARCA2 and SMARCA4 genes; host or cells: HeLa (SMARCA4-HiBiT engineered line)
T2 sequence (P51532 whole entry, the tested form may be a part): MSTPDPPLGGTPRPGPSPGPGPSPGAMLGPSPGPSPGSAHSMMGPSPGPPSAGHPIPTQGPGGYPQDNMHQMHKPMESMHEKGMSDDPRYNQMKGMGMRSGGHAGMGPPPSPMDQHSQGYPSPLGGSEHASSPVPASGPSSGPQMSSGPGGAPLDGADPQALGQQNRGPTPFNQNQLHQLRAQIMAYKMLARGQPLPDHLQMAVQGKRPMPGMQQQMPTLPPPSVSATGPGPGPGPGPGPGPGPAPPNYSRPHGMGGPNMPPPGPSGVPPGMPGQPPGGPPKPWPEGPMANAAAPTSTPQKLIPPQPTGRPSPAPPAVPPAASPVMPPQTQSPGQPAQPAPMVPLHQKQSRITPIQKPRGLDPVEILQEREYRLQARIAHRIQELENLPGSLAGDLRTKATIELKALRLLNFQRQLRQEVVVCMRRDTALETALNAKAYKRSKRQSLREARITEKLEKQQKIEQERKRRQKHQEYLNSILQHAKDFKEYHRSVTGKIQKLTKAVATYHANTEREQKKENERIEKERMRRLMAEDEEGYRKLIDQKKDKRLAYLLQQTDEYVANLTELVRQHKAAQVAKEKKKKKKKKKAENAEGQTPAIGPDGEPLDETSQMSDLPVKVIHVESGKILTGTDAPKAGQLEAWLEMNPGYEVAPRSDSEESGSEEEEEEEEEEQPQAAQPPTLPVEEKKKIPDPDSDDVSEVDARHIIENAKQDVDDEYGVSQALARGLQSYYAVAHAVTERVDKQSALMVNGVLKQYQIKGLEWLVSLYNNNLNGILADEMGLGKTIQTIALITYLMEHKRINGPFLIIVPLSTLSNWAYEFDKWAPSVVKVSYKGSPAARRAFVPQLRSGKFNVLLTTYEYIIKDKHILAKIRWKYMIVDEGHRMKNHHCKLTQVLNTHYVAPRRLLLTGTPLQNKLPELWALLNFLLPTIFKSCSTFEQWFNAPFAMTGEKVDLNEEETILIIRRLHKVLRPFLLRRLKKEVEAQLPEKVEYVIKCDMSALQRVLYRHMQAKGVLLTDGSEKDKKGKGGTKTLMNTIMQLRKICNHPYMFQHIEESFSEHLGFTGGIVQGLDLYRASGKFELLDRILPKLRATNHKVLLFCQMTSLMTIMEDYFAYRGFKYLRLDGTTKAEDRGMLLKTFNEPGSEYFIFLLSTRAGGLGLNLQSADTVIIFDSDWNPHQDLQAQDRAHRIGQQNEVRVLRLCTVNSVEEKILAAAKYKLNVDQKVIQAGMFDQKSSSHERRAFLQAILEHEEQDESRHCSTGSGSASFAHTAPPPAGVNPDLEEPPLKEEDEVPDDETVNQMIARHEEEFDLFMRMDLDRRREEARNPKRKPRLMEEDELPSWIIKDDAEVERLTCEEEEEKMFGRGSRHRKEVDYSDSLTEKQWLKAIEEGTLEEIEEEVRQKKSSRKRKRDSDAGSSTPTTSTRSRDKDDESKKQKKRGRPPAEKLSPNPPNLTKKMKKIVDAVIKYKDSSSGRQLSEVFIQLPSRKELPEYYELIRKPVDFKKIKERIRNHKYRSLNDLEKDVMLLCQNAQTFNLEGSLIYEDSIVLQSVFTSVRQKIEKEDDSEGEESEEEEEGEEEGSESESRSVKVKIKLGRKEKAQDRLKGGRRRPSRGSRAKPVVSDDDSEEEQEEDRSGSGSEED
In short: as §1

SMILES	DC50 [1] [nM]	SMARCA2 % Degradation @ 1 μM [1]	DC50 [2] [nM]	inhibition at 1 µM [2] [%]
C[C@@H]1CCN(c2cc(-c3ccccc3O)nnc2N)CCN1c1ccnc(C#CCN2C3CCCC2CC3)n1 [Compound P-228, o-{5-[(R)-4-(2-{3-(8-azabicyclo[3.2.1]oct-8-yl)-1-propynyl}-4-pyrimidinyl)-5-methyl-1,4-diazepan-1-y1]-6-amino-3-pyridazinyl}phenol]	< 50	++ (++=30-70%)	< 50	30 to 70
C[C@@H]1CCCN1CC#Cc1nccc(N2CCN(c3cc(-c4ccccc4O)nnc3N)CC[C@H]2C)n1 [Compound P-232, o-{5-[(R)-4-(2-{3-[(R)-2-methyl-1-pyrrolidinyl]-1-propynyl}-4-pyrimidinyl)-5-methyl-1,4-diazepan-1-yl]-6-amino-3-pyridazinyl}phenol]	< 50	+++ (+++=>70%)	< 50	30 to 70
C[C@@H]1CCN(c2cc(-c3ccccc3O)nnc2N)CCN1c1ccnc(C#CCN2CCC[C@@H]2C)n1 [Compound P-233, o-{5-[(R)-4-(2-{3-[(S)-2-methyl-1-pyrrolidinyl]-1-propynyl}-4-pyrimidinyl)-5-methyl-1,4-diazepan-1-yl]-6-amino-3-pyridazinyl} phenol]	< 50	++ (++=30-70%)	< 50	30 to 70
Cc1nn2ccn(CC#Cc3nccc(N4CCN(c5cnnc(-c6ccccc6O)c5)CC[C@H]4C)n3)c(=O)c2c1C [Compound P-235, 5-[3-(4-{ (R)-4-[6-(o-hydroxyphenyl)-4-pyridaziny1]-7-methyl-1,4-diazepan-1-yl}-2-pyrimidinyl)-2-propynyl]-2,3-dimethyl-1,5,7a-triaza-4(5H)-indenone]	50 to 500	+ (+=<30%)	500 to 5000	< 30
C[C@@H]1CCN(c2cc(-c3ccccc3O)nnc2N)CCN1c1ccnc(C#CCN2CC[C@@H](F)C2)n1 [Compound P-236, o-{5-[(R)-4-(2-{3-[(R)-3-fluoro-1-pyrrolidinyl]-1-propynyl}-4-pyrimidinyl)-5-methyl-1,4-diazepan-1-yl]-6-amino-3-pyridaziny1} phenol]	< 50	++ (++=30-70%)	< 50	< 30
C[C@@H]1CCN(c2cc(-c3ccccc3O)nnc2N)CCN1c1ccnc(C#CCNC(=O)OC(C)(C)C)n1 [Compound P-238]	50 to 500	+++ (+++=>70%)	50 to 500	30 to 70
C[C@@H]1CCN(c2cc(-c3ccccc3O)nnc2N)CCN1c1ccnc(C#CCNC(=O)c2cccnc2)n1 [Compound P-240, N-[3-(4-{ (R)-4-[3-amino-6-(o-hydroxyphenyl)-4-pyridazinyl]-7-methyl-1,4-diazepan-1-yl}-2-pyrimidinyl)-2-propynyl]nicotinamide]	500 to 5000	++ (++=30-70%)	500 to 5000	< 30
Nc1nnc(-c2ccccc2O)cc1N1CC2CCC(C1)N2c1ccnc(C#CCNC(=O)c2cccnc2)n1 [Compound P-241, N-[3-(4-{3-[3-amino-6-(o-hydroxyphenyl)-4-pyridazinyl]-3,8-diazabicyclo[3.2.1]oct-8-yl}-2-pyrimidinyl)-2-propynyl]nicotinamide]	50 to 500	++ (++=30-70%)	50 to 500	30 to 70
C[C@@H]1CCN(c2cc(-c3ccccc3O)nnc2N)CCN1c1ccnc(C#CCN2CCC(F)(F)C2)n1 [Compound P-243, o-{5-[(R)-4-{2-[3-(3,3-difluoro-1-pyrrolidinyl)-1-propynyl]-4-pyrimidinyl}-5-methyl-1,4-diazepan-1-yl]-6-amino-3-pyridazinyl} phenol]	50 to 500	++ (++=30-70%)	50 to 500	30 to 70
C[C@@H]1CCN(c2cc(-c3ccccc3O)nnc2N)CCN1c1ccnc(C#CCN2CCC(C#N)C2)n1 (stereo partly shown) [Compound P-245]	50 to 500	+++ (+++=>70%)	50 to 500	30 to 70
CC1CCC(C)N1CC#Cc1nccc(N2CCN(c3cc(-c4ccccc4O)nnc3N)CC[C@H]2C)n1 (stereo partly drawn) [Compound P-246, o-{5-[(R)-4-{2-[3-(2,5-dimethyl-1-pyrrolidinyl)-1-propynyl]-4-pyrimidinyl}-5-methyl-1,4-diazepan-1-yl]-6-amino-3-pyridazinyl}phenol]	< 50	++ (++=30-70%)	< 50	30 to 70

Now from value to molecule:

DC50 [1] [nM]	SMARCA2 % Degradation @ 1 μM [1]	DC50 [2] [nM]	inhibition at 1 µM [2] [%]	SMILES
50 to 500	+++ (+++=>70%)	50 to 500	30 to 70	Cc1cnc(C#CCn2ccnc2)nc1N1CCN(c2cc(-c3ccccc3O)nnc2N)CC[C@H]1C [Compound P-227, o-{5-[(R)-4-{2-[3-(1-imidazolyl)-1-propynyl]-5-methyl-4-pyrimidinyl}-5-methyl-1,4-diazepan-1-yl]-6-amino-3-pyridaziny1} phenol]
< 50	+++ (+++=>70%)	50 to 500	30 to 70	Cc1cnc(C#CCN(C)C)nc1N1CCN(c2cc(-c3ccccc3O)nnc2N)CC[C@H]1C [Compound P-229, o-{5-[(R)-4-{2-[3-(dimethylamino)-1-propynyl]-5-methyl-4-pyrimidinyl}-5-methyl-1,4-diazepan-1-yl]-6-amino-3-pyridaziny1}phenol]
50 to 500	++ (++=30-70%)	50 to 500	< 30	C[C@@H]1CCN(c2cc(-c3ccccc3O)nnc2N)CCN1c1ccnc(C#CCN2CC(F)C2)n1 [Compound P-230, o-{5-[(R)-4-{2-[3-(3-fluoro-1-azetidinyl)-1-propynyl]-4-pyrimidinyl}-5-methyl-1,4-diazepan-1-y1]-6-amino-3-pyridaziny1}phenol]
< 50	++ (++=30-70%)	< 50	30 to 70	C[C@@H]1CCN(c2cc(-c3ccccc3O)nnc2N)CCN1c1ccnc(C#CC2CCCCN2C)n1 (stereo partly drawn) [Compound P-231, o-{5-[(R)-5-methyl-4-{2-[2-(1-methyl-2-piperidyl)ethynyl]-4-pyrimidinyl}-1,4-diazepan-1-yl]-6-amino-3-pyridaziny1} phenol]
< 50	+++ (+++=>70%)	< 50	30 to 70	C[C@@H]1CCN(c2cc(-c3ccccc3O)nnc2N)CCN1c1ccnc(C#CCN2CC3CC2C3)n1 [Compound P-234, o-{5-[(R)-4-(2-{3-(2-azabicyclo[2.1.1]hex-2-yl)-1-propynyl}-4-pyrimidinyl)-5-methyl-1,4-diazepan-1-yl]-6-amino-3-pyridazinyl}phenol]
< 50	+++ (+++=>70%)	< 50	30 to 70	C[C@@H]1CCN(c2cc(-c3ccccc3O)nnc2N)CCN1c1ccnc(C#CCN2CCC3(CCC3)C2)n1 [Compound P-237, o-{5-[(R)-4-(2-{3-(6-aza-6-spiro| 3.4 | octyl)-1-propynyl}-4-pyrimidinyl)-5-methyl-1,4-diazepan-1-yl]-6-amino-3-pyridazinyl} phenol]
50 to 500	++ (++=30-70%)	50 to 500	30 to 70	Cc1c(C(=O)NCC#Cc2nccc(N3CCN(c4cc(-c5ccccc5O)nnc4N)CC[C@H]3C)n2)nn(C)c1C [Compound P-239, N-[3-(4-{ (R)-4-[3-amino-6-(o-hydroxyphenyl)-4-pyridazinyl]-7-methyl-1,4-diazepan-1-y1}-2-pyrimidinyl)-2-propynyl]-1-methyl-4,5-dimethyl-3-pyrazolecarboxamide]
< 50	++ (++=30-70%)	< 50	30 to 70	CO[C@@H]1CCN(CC#Cc2nccc(N3CCN(c4cc(-c5ccccc5O)nnc4N)CC[C@H]3C)n2)C1 [Compound P-242, o-{5-[(R)-4-(2-{3-[(R)-3-methoxy-1-pyrrolidinyl]-1-propynyl}-4-pyrimidinyl)-5-methyl-1,4-diazepan-1-yl]-6-amino-3-pyridazinyl} phenol]
< 50	++ (++=30-70%)	< 50	30 to 70	C[C@@H]1CCN(c2cc(-c3ccccc3O)nnc2N)CCN1c1ccnc(C#CCN2CC[C@H](F)C2)n1 [Compound P-244, o-{5-[(R)-4-(2-{3-[(S)-3-fluoro-1-pyrrolidinyl]-1-propynyl}-4-pyrimidinyl)-5-methyl-1,4-diazepan-1-yl]-6-amino-3-pyridaziny1}phenol]
50 to 500	++ (++=30-70%)	50 to 500	30 to 70	C[C@@H]1CCN(c2cc(-c3ccccc3O)nnc2N)CCN1c1nc(C#CCn2ccnc2)ncc1F [Compound P-247, o-{5-[(R)-4-{5-fluoro-2-[3-(1-imidazolyl)-1-propynyl]-4-pyrimidinyl}-5-methyl-1,4-diazepan-1-yl]-6-amino-3-pyridaziny1}phenol]
500 to 5000	++ (++=30-70%)	500 to 5000	< 30	C[C@@H]1CCN(c2cc(-c3ccccc3O)nnc2N)CCN1c1nc(C#CCNC(=O)OC(C)(C)C)ncc1F [Compound P-248]
